Calls of active or inactive are those of the source. No cut-off for these calls is given here.
Legend:
RXF 393 = experiment: Cytotoxicity against human RXF393 cells at 10 uM after 48 hrs by SRB assay; type: functional
Hs-578T = experiment: Cytotoxicity against human Hs 578T cells at 10 uM after 48 hrs by SRB assay; type: functional
COLO 205 = experiment: Cytotoxicity against human COLO205 cells at 10 uM after 48 hrs by SRB assay; type: functional
SNB-75 = experiment: Cytotoxicity against human SNB75 cells at 10 uM after 48 hrs by SRB assay; type: functional
LOX IMVI = experiment: Cytotoxicity against human LOXIMVI cells at 10 uM after 48 hrs by SRB assay; type: functional
OVCAR-3 = experiment: Cytotoxicity against human OVCAR3 cells at 10 uM after 48 hrs by SRB assay; type: functional
Calf thymus DNA = experiment: Binding affinity to calf thymus DNA at 25 uM by UV-vis spectrometric analysis; type: nucleic-acid assay; conditions: Bos taurus
CAKI-1 = experiment: Cytotoxicity against human Caki1 cells at 10 uM after 48 hrs by SRB assay; type: functional
DU-145 = experiment: Cytotoxicity against human DU145 cells at 10 uM after 48 hrs by SRB assay; type: functional
HOP-62 = experiment: Cytotoxicity against human HOP62 cells at 10 uM after 48 hrs by SRB assay; type: functional
HOP-92 = experiment: Cytotoxicity against human HOP92 cells at 10 uM after 48 hrs by SRB assay; type: functional
SW-620 = experiment: Cytotoxicity against human SW620 cells at 10 uM after 48 hrs by SRB assay; type: functional
SF-268 = experiment: Cytotoxicity against human SF268 cells at 10 uM after 48 hrs by SRB assay; type: functional
IGROV-1 = experiment: Cytotoxicity against human IGROV1 cells at 10 uM after 48 hrs by SRB assay; type: functional
OVCAR-5 = experiment: Cytotoxicity against human OVCAR5 cells at 10 uM after 48 hrs by SRB assay; type: functional
OVCAR-8 = experiment: Cytotoxicity against human OVCAR8 cells at 10 uM after 48 hrs by SRB assay; type: functional
NCI/ADR-RES = experiment: Cytotoxicity against human NCI-ADR-RES cells at 10 uM after 48 hrs by SRB assay; type: functional
SK-OV-3 = experiment: Cytotoxicity against human SKOV3 cells at 10 uM after 48 hrs by SRB assay; type: functional
[1] = Cytotoxicity against human HL-60(TB) cells at 10 uM after 48 hrs by SRB assay; type: functional; conditions: HL-60, 48 h, read-out: GI

For `Cc1nc2cc(Nc3nc(Nc4ccc(F)cc4)nc(N4CCN(C)CC4)n3)ccc2n1Cc1ccccc1`, the “growth inhibition (GI)” value (RXF 393) was “Active”, the “growth inhibition (GI)” value (Hs-578T) was “Active” and the “growth inhibition (GI)” value (COLO 205) was “Active”. The “growth inhibition (GI)” value (SNB-75) was “Active”, the “growth inhibition (GI)” value (LOX IMVI) was “Active” and the “growth inhibition (GI)” value (OVCAR-3) was “Active”.
With `Cc1nc2ccc(Nc3nc(NCCN4CCOCC4)nc(Nc4ccc(F)cc4)n3)cc2n1Cc1ccccc1` the Activity (Calf thymus DNA) was “Active”.
For `Cc1nc2cc(Nc3nc(Nc4ccc(F)cc4)nc(N4CCCC4)n3)ccc2n1Cc1ccccc1`, the “growth inhibition (GI)” value (CAKI-1) was “Active”, the “growth inhibition (GI)” value (RXF 393) was “Active” and the “growth inhibition (GI)” value (DU-145) was “Active”. The “growth inhibition (GI)” value (HOP-62) was “Active”, the “growth inhibition (GI)” value (HOP-92) was “Active” and the “growth inhibition (GI)” value (COLO 205) was “Active”. The “growth inhibition (GI)” value (SW-620) was “Active”, the “growth inhibition (GI)” value (SF-268) was “Active” and the “growth inhibition (GI)” value (SNB-75) was “Active”. For the same compound, the “growth inhibition (GI)” value (LOX IMVI) was “Active”, the “growth inhibition (GI)” value (IGROV-1) was “Active” and the “growth inhibition (GI)” value (OVCAR-3) was “Active”. The “growth inhibition (GI)” value (OVCAR-5) was “Active”, the “growth inhibition (GI)” value (OVCAR-8) was “Active” and the “growth inhibition (GI)” value (NCI/ADR-RES) was “Active”. For the same compound, the “growth inhibition (GI)” value (SK-OV-3) was “Active”.
With `Cc1nc2ccc(Nc3nc(Cl)nc(Nc4ccc(F)cc4)n3)cc2n1Cc1ccccc1` the “growth inhibition (GI)” value (OVCAR-5) was “inactive”.
Compound `Cc1nc2cc(Nc3nc(Nc4ccc(F)cc4)nc(-c4cccs4)n3)ccc2n1Cc1ccccc1` has an inhibition of growth at 10 µM [1] of 71.9%.
